Data reported in PMC12174897, “Hitting Two Birds With One Stone: Dual Modulation of Brain Carbonic Anhydrases and Histone Deacetylases Boosts Memory Consolidation” (Archiv Der Pharmazie, 2025).
pEC50: −log10 of the molar value.

Key:
[1] = test system: CA activity in cortical and hippocampal brain homogenates; test: Ex vivo CA activity in brain homogenates after i.c.v. infusion (stopped-flow); settings: 50 nmol/µL, 5 µL i.c.v., 30 min after infusion; vehicle = 100%
Description: (§4) Specifically, mice were euthanized 30 min after the i.c.v. infusion, their brains were collected, and hippocampi and frontal cortices were immediately dissected on ice and then individually homogenized in 1 mL of ice‐cold 20 mM Hepes buffer (pH 7.5).
The overall catalytic activity of CAs (K cat) of each individual preparation was measured with a stopped flow spectrophotometric method monitoring the physiological CO2 hydration reaction catalyzed by these enzymes [30]
Animals were killed 30 min after drug infusion, and the brain structures were immediately dissected on ice and homogenized. CA activity was measured with a stopped‐flow method. The mean CA activity measured in the group of control mice treated with vehicle was taken as 100%, the activities measured for animals treated with compounds were normalized to this value. Data are expressed as means ± S.E.M. of six–nine mice per experimental group. One‐way ANOVA and Bonferroni MCT, **p < 0.01 versus vehicle.
In the infusion days, a stainless‐steel injection micro‐needle (outer diameter 0.25 mm) connected through a polyethylene catheter to a 1000 µL Hamilton precision syringe was inserted into the cannulae previously implanted and lowered into the lateral cerebral ventricle (DV 2.4 mm). Then, 5 µL of a solution containing the testing compounds or vehicle were delivered using an infusion pump at 1 µL/min flow. The needle was left in place for one additional minute after each infusion to avoid efflux. Thirty minutes after drug injections, the animals were euthanized, their brain immediately removed, the cortices and hippocampi were rapidly dissected on ice, weighted, and stored at –80°C until use.
Animals pertaining to the control group received infusions of vehicle (physiological saline containing 1% DMSO (v/v)).
Brain tissues were homogenized in 1.0 mL of ice‐cold 20 mM Hepes buffer (pH 7.5). After centrifugation at 20,000g for 30 min, an Applied Photophysics stopped‐flow instrument was used for assaying the CA‐catalyzed CO2 hydration activity from the samples as previously described [23, 34]. […] The mean CA activity determined in the brain samples from the control group of mice treated with vehicle was set as 100% and all the individual calculated values were then expressed as a percentage of controls.

hCA VA = target: T1, hCA VA (Homo sapiens, UniProt P35218); test: stopped-flow CO2 hydrase assay, CA activation; assay type: biochemical; settings: for K A hCA VA: activation constant, mean from three assays, errors ±5%–10%
T1 construct: made in house
T1 sequence (P35218 39-305): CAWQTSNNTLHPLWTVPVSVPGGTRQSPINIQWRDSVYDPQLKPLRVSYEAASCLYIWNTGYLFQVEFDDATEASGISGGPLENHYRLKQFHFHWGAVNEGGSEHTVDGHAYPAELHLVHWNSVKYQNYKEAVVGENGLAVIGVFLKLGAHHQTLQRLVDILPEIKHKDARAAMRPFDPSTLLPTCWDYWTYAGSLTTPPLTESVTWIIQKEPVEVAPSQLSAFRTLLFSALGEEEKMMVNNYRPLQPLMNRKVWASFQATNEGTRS
Description: (§1) . The potencies were reported as K A values in Table 1 and compared with the reference compound D‐Phe. AC50 curves are reported in the Supporting Information.
(§2) . The uncatalyzed rates were determined in the same manner and subtracted from the total observed rates. Stock solutions of the inhibitor (0.1 mM) were prepared in distilled–deionized water and dilutions up to 0.01 nM were done thereafter with the assay buffer. Inhibitor and enzyme solutions were preincubated together for 15 min at r.t. before the assay, to allow for the formation of the E–I complex. The inhibition constants were obtained by nonlinear least‐squares methods using PRISM 3 and the Cheng‐Prusoff equation [41] and represent the mean from at least three different determinations. Apart from commercial hCAs I and II, all CA isoforms were recombinant proteins obtained in house, as reported earlier.
as §2, with “prior to” for “before”, “least-squares” for “least‐squares”, “Cheng-Prusoff” for “Cheng‐Prusoff”, “[2]” for “[41]”

hCA IV = target: T2, hCA IV (Homo sapiens, UniProt P22748); test: stopped-flow CO2 hydrase assay, CA activation; assay type: biochemical; settings: for K A hCA IV: activation constant, mean from three assays, errors ±5%–10%
T2 construct: made in house
T2 sequence (P22748 19-312): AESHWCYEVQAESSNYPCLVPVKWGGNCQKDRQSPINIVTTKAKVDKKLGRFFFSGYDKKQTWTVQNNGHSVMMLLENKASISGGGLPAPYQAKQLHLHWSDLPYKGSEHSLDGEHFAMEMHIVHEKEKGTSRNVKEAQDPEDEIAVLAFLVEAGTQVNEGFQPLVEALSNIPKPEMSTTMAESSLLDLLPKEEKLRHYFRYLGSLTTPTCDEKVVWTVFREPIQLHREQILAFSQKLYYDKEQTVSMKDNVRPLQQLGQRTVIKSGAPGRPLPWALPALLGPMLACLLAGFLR
Description: as §1, §2
as §2, with “prior to” for “before”, “least-squares” for “least‐squares”, “Cheng-Prusoff” for “Cheng‐Prusoff”, “[2]” for “[41]”

hCA VII = target: T3, hCA VII (Homo sapiens, UniProt P43166); test: stopped-flow CO2 hydrase assay, CA activation; assay type: biochemical; settings: for K A hCA VII: activation constant, mean from three assays, errors ±5%–10%
T3 construct: made in house
T3 sequence (P43166 whole entry): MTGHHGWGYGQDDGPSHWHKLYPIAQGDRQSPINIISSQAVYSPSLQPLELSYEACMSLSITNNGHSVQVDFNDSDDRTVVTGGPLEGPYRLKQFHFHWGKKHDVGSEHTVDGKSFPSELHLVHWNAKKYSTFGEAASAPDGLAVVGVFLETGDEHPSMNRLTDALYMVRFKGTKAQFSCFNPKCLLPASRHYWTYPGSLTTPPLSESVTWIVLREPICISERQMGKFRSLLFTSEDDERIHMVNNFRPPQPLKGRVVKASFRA
Description: as §1, §2
as §2, with “prior to” for “before”, “least-squares” for “least‐squares”, “Cheng-Prusoff” for “Cheng‐Prusoff”, “[2]” for “[41]”

[2] = test system: HDAC activity of HeLa nuclear extract; test: Fluor de Lys-Green HDAC assay kit, HDAC inhibition; assay type: biochemical
Description: (§3) HeLa nuclear extract, rich in HDAC activity, is included with the kit. Trichostatin A solution was used as a positive control and model inhibitor. Plates were read with excitation at 380 nm and emission at 440 nm on a TECAN Spark multimode microplate reader. Histone deacetylase activity was measured according to the manufacturer's instructions.
as §3, with “Spark®” for “Spark”, “to” for “to the”

hCA II = target: T4, hCA II (Homo sapiens, UniProt P00918); test: stopped-flow CO2 hydrase assay, CA activation; assay type: biochemical; settings: for K A hCA II: activation constant, mean from three assays, errors ±5%–10%
T4 construct: purchased

hCA I = target: T5, hCA I (Homo sapiens, UniProt P00915); test: stopped-flow CO2 hydrase assay, CA activation; assay type: biochemical; settings: for K A hCA I: activation constant, mean from three assays, errors ±5%–10%
T5 construct: purchased
T5 sequence (P00915 whole entry): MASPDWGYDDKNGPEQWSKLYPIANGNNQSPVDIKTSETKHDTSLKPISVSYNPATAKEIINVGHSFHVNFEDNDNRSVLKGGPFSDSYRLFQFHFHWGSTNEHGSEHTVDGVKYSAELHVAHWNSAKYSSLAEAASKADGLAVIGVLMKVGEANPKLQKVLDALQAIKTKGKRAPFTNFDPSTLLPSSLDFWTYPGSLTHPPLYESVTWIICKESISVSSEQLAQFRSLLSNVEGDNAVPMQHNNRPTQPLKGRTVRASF

hCA IX = target: T6, hCA IX (Homo sapiens, UniProt Q16790); test: stopped-flow CO2 hydrase assay, CA activation; assay type: biochemical; settings: activation constant; mean from three assays, errors ±5%–10%
T6 construct: made in house

Male C57Bl6 mice = test: Novel object recognition (NOR) paradigm, memory consolidation; assay type: in vivo; parameters: key to Discrimination index (DI): DI = (tN − tF)/(tN + tF); novel vs familiar exploration time; settings: for Discrimination index (DI): 5 µL i.c.v., retention test 24 h, vehicle −0.057 ± 0.069; for percentage of time spent exploring familiar vs novel object, retention test: 5 µL i.c.v. immediately after acquisition, retention test 24 h later
Description: This set of experiments was designed to evaluate the impact of single reference compounds (D‐Phe and 19) as well as the dual acting (12 and 14) on recognition memory. These compounds were administered directly into the brain lateral ventricles immediately after the acquisition session to investigate their impact specifically on memory consolidation. […] Such a design avoids the use of amnestic drugs that could interfere with data interpretation and represents an advantage when studying the procognitive potential of novel compounds. The dose range and administration route were also chosen based on previous reports showing that the procognitive effects of CA and HDAC modulators rely on their action on centrally and not peripherally expressed enzymes. Moreover, the injection of the tested compounds directly into the lateral ventricles (i.c.v.) consents widespread drug distribution in the brain and at the same time minimizes potential interference of peripheral phenomena such as barriers crossing, protein binding, drug metabolism, that are highly influenced by specific drug characteristics such as size, solubility, charge. Therefore, the i.c.v. route represents an advantage in studies comparing the potency of compounds by ensuring precise control of drug concentrations in the target organ and excluding confounding factors related to peripheral pharmacokinetic mechanisms.
Figure 5 Dual modulation of CAs and HDACs potently boost recognition memory in mice. (A) Schematic drawing showing the sequence of the behavioral procedures: immediately after the acquisition phase mice received infusions (5 µL) of solutions containing either vehicle, the CA activator D‐Phe, the HDAC inhibitor 19 dual acting compounds 12 and 14 at 0.5, 5, or 50 nmol/µL concentrations. The retention test was performed 24 h later. (B) Percentages of time spent exploring the familiar (F) or novel (N) objects during the retention test. The dashed line indicates a theoretical means of 50%. Statistically significant differences determined by two‐way ANOVA and Bonferroni's MCT: ****p < 0.0001 F versus N. (C) Discrimination indexes calculated with the formula DI = (tN tF)/(tN + tF). Statistically significant differences determined by one‐way ANOVA and Bonferroni's MCT: *p < 0.05; **p < 0.01 versus vehicle‐treated group. In both graphics, data are expressed either as individual data points for each animal (scattered plot) znc means ± SEM represented by bar graphs. N = 6–9 animals by experimental group.
Male C57Bl6 mice were submitted to the stereotaxic surgery to implant a guide cannula into the brain lateral ventricles as described above. One week after the surgery, their behavior was assessed in an open‐field arena (60 × 70 cm and 30 cm high) constructed in white acrylic Plexiglass and placed in a sound‐attenuated room. The detailed experimental procedure is already published. The NOR protocol consists of three sessions: habituation, acquisition, and retention test separated by 24 h intertrial intervals. During habituation, the animals freely explored the empty arena for 10 min. Twenty‐four hours later, each animal was placed in the same position and facing the same direction into the test arena in the presence of two identical objects (gray plastic shapes such as cubes, cylinders, or pyramids 8 cm high) and left free to explore it for 5 min. […] The retention test session was performed 24 h after acquisition, during which, each mouse was again placed in the test arena for 5 min in the presence of one of the familiar object and a novel object. The position of the new objects (left/right) was randomized to prevent bias from order or place preference.

[3] = test system: HDAC activity in hippocampal and cortical brain homogenates; test: Ex vivo HDAC residual activity in brain homogenates after i.c.v. infusion (fluorometric); settings: 50 nmol/µL, 5 µL i.c.v., 30 min after infusion; vehicle = 100%
Description: as §4
Animals were killed 30 min after drug infusion, and the brain structures were immediately dissected on ice and homogenized. HDAC activity was measured with the fluorometric method. The HDAC mean activity of the control group mice was taken as 100%, % of the activities measured for animals treated with compounds were normalized to this value. Data are expressed as means ± S.E.M. of 6–13 mice per experimental group. One‐way ANOVA and Bonferroni MCT, ****p < 0.0001 versus vehicle‐treated group. […]
The residual enzymatic activity in brain tissues was measured using Fluor de Lys‐Green HDAC fluorometric activity assay kit purchased from Enzo Life Sciences (Farmingdale, NY). […] Measurements were performed using a TECAN Spark multimode microplate reader, set to a wavelength of 280 nm. Once the absorbance was measured, the concentration of the enzyme HDAC contained in the brain homogenates was calculated according to Lambert‐Beer's law. […] Fluorescence was measured at 380 nm and detected at 440 nm. Each test included a blank as a reference for minimal fluorescence, containing only buffer and substrate, thus lacking any protein component [49, 50]. […]

[4] = mean from three assays, errors 5%–10%
[5] = supplement InChI file, given as KI

SMILES	CA activity (%) in cortical homogenates versus vehicle [1]	CA activity (%) in hippocampal homogenates versus vehicle [1]	K A hCA VA (hCA VA) [µM]	K A hCA IV (hCA IV) [µM]	K A hCA VII (hCA VII) [µM]	pEC50 [2, 4]	K A hCA II (hCA II) [µM]	K A hCA I (hCA I) [µM]	K A hCA IX (hCA IX) [µM]	Discrimination index (DI) (Male C57Bl6 mice; 0.5 nmol/µL)	Discrimination index (DI) (Male C57Bl6 mice; 5 nmol/µL)	percentage of time spent exploring familiar vs novel object, retention test (Male C57Bl6 mice; 5 nmol/μL)	Discrimination index (DI) (Male C57Bl6 mice; 50 nmol/µL)	percentage of time spent exploring familiar vs novel object, retention test (Male C57Bl6 mice; 50 nmol/μL)	other results
Nc1ccccc1NC(=O)c1ccc(NC(=O)NCCc2c[nH]cn2)cc1.O=C(O)C(F)(F)F [Compound 12, 2‐(4‐{3‐[2‐(1H‐imidazol‐4‐yl)ethyl]ureido}benzamido)benzenaminium 2,2,2‐trifluoroacetate]	significantly increased	significantly increased	> 10000	23.0	32.0	5.55	66.8	75.4	68.8	−0.077 ± 0.078	0.288 ± 0.110	spent significantly more time exploring the novel object	0.313 ± 0.173	spent significantly more time exploring the novel object	–
Nc1cc(F)ccc1NC(=O)c1ccc(NC(=O)NCCc2c[nH]cn2)cc1.[O-][Cl+3]([O-])([O-])O.[O-][Cl+3]([O-])([O-])O [Compound 14, 4‐{3‐[2‐(1H‐Imidazol‐4‐yl)Ethyl]Ureido}‐N‐(2‐Amino‐4‐Fluorophenyl)Benzamide Diperchlorate]	significantly increased	significantly increased	37.9	49.1	26.1	5.28	49.5	53.8	> 10000	−0.026 ± 0.274	0.317 ± 0.132	spent significantly more time exploring the novel object	0.224 ± 0.223	spent significantly more time exploring the novel object	fold more potent activator of hCA VII (hCA VII; K A of 14 compared with 12): 1.2 fold; fold more potent activator of hCA II (hCA II; K A of 14 compared with 12): 1.3 fold; fold more potent activator of hCA I (hCA I; K A of 14 compared with 12): 1.4 fold
Nc1ccccc1NC(=O)c1ccc(NCC(=O)NCCc2ccccc2)cc1 [Compound 19, N‐(2‐Aminophenyl)‐4‐{[2‐Oxo‐2‐(Phenethylamino)Ethyl]Amino}Benzamide]	no differences were observed	no differences were observed	> 10000	> 10000	> 10000	4.85	–	–	–	–	–	–	–	promnesic effect	HDAC residual activity (%) in cortical homogenates versus vehicle [3]: significant reduction; HDAC residual activity (%) in hippocampal homogenates versus vehicle [3]: significant reduction; KA (activation constant) (hCA VA; [5]): > 10 mM; activation constant KA (hCA IV; [5]): > 10 mM; activation constant KA (hCA VII; [5]): > 10 mM
N[C@H](Cc1ccccc1)C(=O)O [D‐Phe, reference compound]	significantly increased	significantly increased	–	49.3	–	–	0.035	86.0	–	–	–	–	–	promnesic effect	–
CC(/C=C/C(=O)NO)=C\[C@@H](C)C(=O)c1ccc(N(C)C)cc1 [Trichostatin A, reference compound]	–	–	–	–	–	–	–	–	–	–	–	–	–	–	pEC50 ([2]; reference inhibitor): 8.74
